# Measurements published in patent US20250161446A1, “MODIFIED IMMUNE CELLS FOR TREATING AND/OR PREVENTING METASTASIS” (TECHNISCHE UNIVERSITÄT MÜNCHEN, priority 2022, published 2025).
# Legend:
# NK cells [1] = test: NK cell degranulation (LAMP-1 staining) upon anti-NK1.1 stimulation; format: cell-based, mouse; conditions: PGE2 pre-treatment 16 h
# Protocol: (§1) For the isolation of mouse NK cells, the spleen was excised from mice and passed through a steel sieve. Red blood cells were lysed by incubating the cells with ammonium chloride potassium buffer for 2 min. Following filtration through a 70 μm cell strainer, CD49b^+ leukocytes were purified by immunomagnetic separation to enrich for CD49b^+ NK cells. Th cells were stained with anti-CD49b FITC, anti-CD3ε PerCP/Cy5.5, anti-CD19 PE/eF610 and CD64 PE/Cy7 for 15 min at 4° C. and NK cells, phenotypically identified as CD49b^+CD3ε^−CD19^−CD64^− cells, were FACS-sorted using a SH800 Cell Sorter. After isolation, NK cells were cultured in low doses of IL2 and IL15/IL15Ra for five days to rest the cells and generate functional NK cells.
# Murine or human NK cells or CD8^+ T cells were treated with 1-100 ng/ml synthetic PGE2 or medium as control for 16 h at 37° C. For experiments with tumor factors (TF), cells were incubated in a 1:1 mixture of complete RPMI medium with TF-containing conditioned medium from cancer cells. For the inhibitor studies, cells were first incubated with single EP receptor inhibitors (EP1-EP4) or inhibitor combinations at a concentration of 5 μM for 30 min, before adding 100 ng/ml PGE2 for 16 h at 37° C. For the RNA and ATAC sequencing approach, NK cells were only pre-treated for 1 h with PGE2 and then stimulated (as described below) for further 4 h. […]
# NK cells [2] = test: Granzyme B expression in NK cells by flow cytometry; format: cell-based, mouse; conditions: untreated vs PGE2-treated NK cells
# Protocol: as §1
# Murine or human NK cells or CD8^+ T cells were treated with 1-100 ng/ml synthetic PGE2 or medium as control for 16 h at 37° C. For experiments with tumor factors (TF), cells were incubated in a 1:1 mixture of complete RPMI medium with TF-containing conditioned medium from cancer cells. […]
# (§2) For flow cytometric analysis, cells were resuspended in staining buffer containing antibodies for surface molecules and incubated for 15 min. […] Intracellular staining of cytokines (including IFNγ and TNF) was performed in permeabilization buffer and cells were subsequently analyzed by flow cytometry. […]
# BRAF^V600E tumor cells = test: NK cell cytotoxicity assay (xCelligence impedance); format: cell-based, mouse; conditions: PGE2-treated NK cells co-cultured with tumor cells
# Protocol: Measurement of the dynamics of NK cell cytotoxicity against BRAF^V600E tumor cells over time was performed with the impedance-based technology using an xCelligence RTCA MP device (ACEA Biosciences). The xCELLigence RTCA system measures changes in impedance generated by adherence of cells to electrodes on the bottom of the wells of E-Plates and calculates a parameter called Cell Index. For the assays, tumor cells were seeded in 96-well E-plates. After tumor cells reached confluency and a maximum cell index, in vitro cultured NK cells were added in different effector-to-target ratios. Killing was measured by declining cell index values. Percentage of specific cytotoxicity was finally calculated to the index values from tumor cells alone.
# NK cells [3] = test: Cytokine release assay of mouse NK cells upon anti-NK1.1 stimulation (ELISA, multiplex); format: cell-based
# Protocol: as §1
# For experiments with tumor factors (TF), cells were incubated in a 1:1 mixture of complete RPMI medium with TF-containing conditioned medium from cancer cells. For the inhibitor studies, cells were first incubated with single EP receptor inhibitors (EP1-EP4) or inhibitor combinations at a concentration of 5 μM for 30 min, before adding 100 ng/ml PGE2 for 16 h at 37° C. For the RNA and ATAC sequencing approach, NK cells were only pre-treated for 1 h with PGE2 and then stimulated (as described below) for further 4 h.
# To assess cytokine and chemokine production and degranulation, NK cells were stimulated with plate-bound anti-NK1.1 (PK136), mimicking their activation in metastasis. Human NK cells were activated by incubation with the human […] cell line K562. For analysis of cytokine and chemokine production, Brefeldin A was added 1 h after stimulation to block intracellular protein transport processes. 3 h later, cells were stained for flow cytometric analysis. For analysis of degranulation, stimulation was done in presence of anti-LAMP-1 antibody, and Monensin was added 1 h later to prevent acidification of endolytic vesicles.
# To assess the production of cytokines in cell culture supernatants, NK cells were stimulated for 16 h and cell-free supernatants were harvested and stored at −20° C. until further use. Cytokine concentrations in the culture supernatants were measured by enzyme-linked immunosorbent assays (ELISA) or a multiplex cytokine assay (Bio-Plex Pro Mouse Cytokine 23-plex).
# human NK cells = test: Human NK cell cytokine production upon stimulation with K562 (flow cytometry); format: cell-based; conditions: PGE2 16 h
# Text: (§3) Human NK cells and CD8+ T cells were isolated from blood of healthy, voluntary donors after they gave written and informed consent. Blood was mixed with PBS and loaded on Pancoll to isolate peripheral blood mononuclear cells (PBMCs) through centrifugation. NK cells were then isolated by negative selection using the Untouched Human NK Cell Isolation Kit (ThermoFisher). CD8+ T cells were then isolated by negative selection using the Untouched Human CD8+ T Cell Isolation Kit (Miltenyi).
# (§4) Murine or human NK cells or CD8^+ T cells were treated with 1-100 ng/ml synthetic PGE2 or medium as control for 16 h at 37° C. For experiments with tumor factors (TF), cells were incubated in a 1:1 mixture of complete RPMI medium with TF-containing conditioned medium from cancer cells. For the inhibitor studies, cells were first incubated with single EP receptor inhibitors (EP1-EP4) or inhibitor combinations at a concentration of 5 μM for 30 min, before adding 100 ng/ml PGE2 for 16 h at 37° C. […]
# as §2
# mouse CD8^+ T cells = test: Mouse CD8^+ T cell expansion after anti-CD3/CD28+IL-12 stimulation; format: cell-based; conditions: PGE2 16 h, expansion 72 h later
# Protocol: For the isolation of mouse CD8^+ T cells, the spleen was excised from mice and passed through a steel sieve. Red blood cells were lysed by incubating the cells with ammonium chloride potassium buffer for 2 min. Following filtration through a 70 μm cell strainer, CD8^+ T cells were purified by immunomagnetic separation using anti-CD8 microbeads. After isolation, CD8^+ T cells were cultured with low dose IL2 and CD3/CD28 stimulatory beads to generate effector-like CD8+ T cells for in vitro assays.
# as §4
# (§5) To assess T cell differentiation and expansion, CD8^+ T cells were stimulated with anti-CD3/CD28 microbeads plus Interleukin-12 (10 ng/ml), mimicking their activation in metastasis or tumor tissue, and cell numbers were quantified 72 h later by flow cytometry.
# human CD8^+ T cells = test: Human CD8^+ T cell expansion after anti-CD3/CD28+IL-12 stimulation; format: cell-based; conditions: PGE2 16 h, expansion 72 h later
# Text: as §3
# Murine or human NK cells or CD8^+ T cells were treated with 1-100 ng/ml synthetic PGE2 or medium as control for 16 h at 37° C. For experiments with tumor factors (TF), cells were incubated in a 1:1 mixture of complete RPMI medium with TF-containing conditioned medium from cancer cells. For the inhibitor studies, cells were first incubated with single EP receptor inhibitors (EP1-EP4) or inhibitor combinations at a concentration of 5 μM for 30 min, before adding 100 ng/ml PGE2 for 16 h at 37° C. For the RNA and ATAC sequencing approach, NK cells were only pre-treated for 1 h with PGE2 and then stimulated (as described below) for further 4 h.
# as §5
# [4] = anti-NK1.1 stimulation in presence of PGE2
compound,measurement,setting,value
"CCCCC[C@H](O)/C=C/[C@H]1[C@H](O)CC(=O)[C@@H]1C/C=C\CCCC(=O)O [PGE2, prostaglandin E2]",degranulation (LAMP-1 staining) of NK cells,NK cells [1],only slightly reduced
same,granzyme B levels in NK cells,NK cells [2],unaffected
same,NK cell mediated killing of tumor cells,BRAF^V600E tumor cells,effectively eliminate the tumor cells
same,XCL1 secretion after transient PGE2 treatment,"NK cells [3]; PGE2 24 h, then removed for 24 h before anti-NK1.1 stimulation",strong inhibitory effects
same,IFNγ release by NK cells,NK cells [3]; [4],markedly reduced in a dose-dependent manner
same,XCL1 release by NK cells,NK cells [3]; [4],markedly reduced in a dose-dependent manner
same,"secretion of other effector cytokines, chemokines and growth factors by NK cells","NK cells [3]; upon stimulation, multiplex assay",diminished the secretion
same,"cytokine and chemokine production (IFNγ, TNF, XCL1) by human NK cells",human NK cells,impaired the cytokine and chemokine production
same,expansion of mouse CD8^+ T cells upon stimulation,mouse CD8^+ T cells,strongly impaired
same,expansion of human CD8^+ T cells upon stimulation,human CD8^+ T cells,Identical findings
